Results as given in article PMC9376891 (Nature Communications, 2022).

Molecular target: Rae1_31-368-Nup98_157-213 heterodimer (Rae1-Nup98 complex) (Homo sapiens, UniProt P52948+P78406)
Test: biochemical
Assay type: binding

Chain of Rae1_31-368-Nup98_157-213 heterodimer (Rae1-Nup98 complex) (P78406 31-368 limits assumed): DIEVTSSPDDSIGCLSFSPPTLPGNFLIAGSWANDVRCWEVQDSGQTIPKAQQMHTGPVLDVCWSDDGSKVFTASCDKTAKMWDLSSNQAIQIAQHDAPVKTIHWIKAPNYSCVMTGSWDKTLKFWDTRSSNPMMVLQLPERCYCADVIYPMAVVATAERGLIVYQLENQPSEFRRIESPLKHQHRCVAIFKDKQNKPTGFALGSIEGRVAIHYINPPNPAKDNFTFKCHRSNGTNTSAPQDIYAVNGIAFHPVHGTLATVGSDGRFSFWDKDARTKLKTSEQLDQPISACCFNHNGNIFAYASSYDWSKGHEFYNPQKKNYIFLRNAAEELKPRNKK
Chain of Rae1_31-368-Nup98_157-213 heterodimer (Rae1-Nup98 complex) (P52948 157-213 partner limits assumed): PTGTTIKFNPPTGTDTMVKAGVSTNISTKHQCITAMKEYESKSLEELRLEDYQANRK

CC[C@H](C)[C@H](NC(=O)[C@H](CCC(=O)O)NC(=O)[C@H](CCSC)NC(=O)[C@@H]1CCCN1C(=O)[C@H](CCC(N)=O)NC(=O)[C@H](CCC(=O)O)NC(=O)[C@H](CCC(=O)O)NC(=O)[C@H](CC(=O)O)NC(=O)[C@H](CC(C)C)NC(=O)[C@H](CCC(N)=O)NC(=O)[C@H](CO)NC(=O)[C@@H](N)Cc1ccc(O)cc1)C(=O)N[C@@H](CC(=O)O)C(=O)N[C@@H](Cc1ccc(O)cc1)C(=O)N1CCC[C@H]1C(=O)O [SARS-CoV-2 ORF6 C3 + YP]
Kd: 0.2 µM
